# Test results taken from US5789434A, “Derivatives of substituted 4-biarylbutyric acid as matrix metalloprotease inhibitors” (priority 1995, dated 1998).
# What was measured:
# MMP-3 = target: T1, MMP-3 (Homo sapiens, UniProt P08254); assay: Primary Thiopeptilide MMP-3 Inhibition Assay; assay type: biochemical; details: for IC50: pH 6.5, 13 nM stromelysin, x (n) = average of n determinations, read-out: MMP-3 Thiopep. IC50; for inhibition at 5 µM: read-out: MMP-3 Thiopep. % inhibition
# T1 construct: Truncated Prostromelysin-257 was expressed in a soluble form in E.coli; made in house; host or cells: E. coli
# T1 sequence (P08254 100-274 limits assumed): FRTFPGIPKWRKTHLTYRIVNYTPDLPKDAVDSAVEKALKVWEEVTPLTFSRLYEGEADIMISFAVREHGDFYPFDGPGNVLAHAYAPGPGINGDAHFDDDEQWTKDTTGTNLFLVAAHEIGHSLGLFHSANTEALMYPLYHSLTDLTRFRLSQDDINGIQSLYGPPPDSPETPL
# MMP-9 = target: T2, MMP-9 (Homo sapiens, UniProt P14780); assay: Thiopeptilide MMP-9 Inhibition Assay; assay type: biochemical; details: for inhibition at 5 µM: read-out: MMP-9: Thiopep. % inhibition; for IC50: pH 6.5, x (n) = average of n determinations, read-out: MMP-9: Thiopep. IC50
# T2 construct: from tissue; host or cells: human polymorphonuclear leukocytes (PMN) from whole blood (New York Blood Center), PMA-stimulated supernatant
# T2 sequence (P14780 107-707 limits assumed): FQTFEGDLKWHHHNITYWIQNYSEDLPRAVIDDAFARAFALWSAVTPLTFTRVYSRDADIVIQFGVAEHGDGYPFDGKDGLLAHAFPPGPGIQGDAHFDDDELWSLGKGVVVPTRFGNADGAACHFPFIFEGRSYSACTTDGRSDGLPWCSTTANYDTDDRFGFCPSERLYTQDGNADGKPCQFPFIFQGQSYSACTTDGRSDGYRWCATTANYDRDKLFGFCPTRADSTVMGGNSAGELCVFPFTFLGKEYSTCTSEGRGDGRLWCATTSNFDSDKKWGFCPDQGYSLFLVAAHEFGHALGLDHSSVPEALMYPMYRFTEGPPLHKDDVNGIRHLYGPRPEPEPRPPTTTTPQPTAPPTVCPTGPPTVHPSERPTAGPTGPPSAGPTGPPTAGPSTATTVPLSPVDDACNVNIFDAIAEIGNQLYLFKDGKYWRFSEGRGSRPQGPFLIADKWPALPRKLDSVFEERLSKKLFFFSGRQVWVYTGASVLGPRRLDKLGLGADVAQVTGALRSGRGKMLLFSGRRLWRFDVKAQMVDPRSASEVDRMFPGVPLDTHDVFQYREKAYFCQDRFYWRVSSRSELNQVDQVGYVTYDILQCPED
SMILES,IC50 (MMP-3) [nM],inhibition at 5 µM (MMP-9) [%],inhibition at 5 µM (MMP-3) [%],IC50 (MMP-9) [nM]
"O=C(CC(CCCc1ccccc1)C(=O)O)c1ccc(-c2ccc(Cl)c(Cl)c2)cc1 (stereo not drawn) [Example 65, [1,1'-Biphenyl]-4-butanoic acid, 3',4'-dichloro-γ-oxo-α-(3-phenylpropyl)-]",840,47,–,–
"O=C(CC(CCCc1ccccc1)C(=O)O)c1ccc(-c2cc(Cl)cc(Cl)c2)cc1 (stereo not drawn) [Example 66, [1,1'-Biphenyl]-4-butanoic acid, 3',5=-dichloro-γ-oxo-α-(3-phenylpropyl)-]",–,11,7,–
"CC(=O)Oc1ccc(-c2ccc(C(=O)CC(CCCc3ccccc3)C(=O)O)cc2)cc1 (stereo not drawn) [Example 67, [1,1'-Biphenyl]-4-butanoic acid, 4'-(acetyloxy)-γ-oxo-α-(3-phenylpropyl)-]",150,–,–,780
"O=C(CC(CCCc1ccccc1)C(=O)O)c1ccc(-c2ccc(Cl)s2)cc1 (stereo not drawn) [Example 68, Benzenepentanoic acid, α-[2-[4-(5-chloro-2-thienyl)phenyl]-2-oxoethyl]-]",280,–,–,300
"COc1ccc(-c2ccc(C(=O)CC(CCCc3ccccc3)C(=O)O)cc2)cc1 (stereo not drawn) [Example 73, [1,1'-Biphenyl]-4-butanoic acid, 4'-methoxy-γ-oxo-α-(3-phenylpropyl)-]",220,–,–,600
"O=C(CC(CCCc1ccccc1)C(=O)O)c1ccc(-c2ccc(F)c(Cl)c2)cc1 (stereo not drawn) [Example 74, [1,1'-Biphenyl]-4-butanoic acid, 3'-chloro-4'-fluoro-γ-oxo-α-(3-phenylpropyl)-]",2300,38,–,–
"CCOc1ccc(-c2ccc(C(=O)CC(CCCc3ccccc3)C(=O)O)cc2)cc1 (stereo not drawn) [Example 75, [1,1'-Biphenyl]-4-butanoic acid, 4'-ethoxy-γ-oxo-α-(3-phenylpropyl)-]",78,–,–,82
"O=C(CC(CCCc1ccccc1)C(=O)O)c1ccc(-c2ccsc2)cc1 (stereo not drawn) [Example 76, Benzenepentanoic acid, α-[2-oxo-2-[4-(3-thienyl)phenyl]ethyl]-]",1000,–,–,1800
"O=C(CC(CCCc1ccccc1)C(=O)O)c1ccc(-c2ccc(Cl)cc2Cl)cc1 (stereo not drawn) [Example 77, [1,1'-Biphenyl]-4-butanoic acid, 2',4'-dichloro-γ-oxo-α-(3-phenylpropyl)-]",–,7,24,–
"O=Cc1ccc(-c2ccc(C(=O)CC(CCCc3ccccc3)C(=O)O)cc2)cc1 (stereo not drawn) [Example 78, [1,1'-Biphenyl]-4-butanoic acid, 4'-formyl-γ-oxo-α-(3-phenylpropyl)-]",310,–,–,1200
"O=C(CC(CCCc1ccccc1)C(=O)O)c1ccc(-c2cc(C(F)(F)F)cc(C(F)(F)F)c2)cc1 (stereo not drawn) [Example 79, [1,1'-Biphenyl]-4-butanoic acid, γ-oxo-α-(3-phenylpropyl)-3',5'-bis(trifluoromethyl)-]",–,9,12,–
"O=C(CC(CCCc1ccccc1)C(=O)O)c1ccc(-c2cccs2)cc1 (stereo not drawn) [Example 80, Benzenepentanoic acid, α-[2-oxo-2-[4-(2-thienyl)phenyl]ethyl]-]",470,–,–,800
"CCCCOc1ccc(-c2ccc(C(=O)CC(CCCc3ccccc3)C(=O)O)cc2)cc1 (stereo not drawn) [Example 89, [1,1'-Biphenyl]-4-butanoic acid, 4'-butoxy-γ-oxo-α-(3-phenylpropyl)-]",111,–,–,480

# The remaining lines, values ahead:
IC50 (MMP-3) [nM],inhibition at 5 µM (MMP-9) [%],inhibition at 5 µM (MMP-3) [%],IC50 (MMP-9) [nM],SMILES
–,12,30,–,"O=C(CC(CCCc1ccccc1)C(=O)O)c1ccc(-c2cccc(C(F)(F)F)c2)cc1 (stereo not drawn) [Example 81, [1,1'-Biphenyl]-4-butanoic acid, γ-oxo-α-(3-phenylpropyl)-3'-(trifluoromethyl)-]"
–,9,23,–,"O=Cc1ccccc1-c1ccc(C(=O)CC(CCCc2ccccc2)C(=O)O)cc1 (stereo not drawn) [Example 82, [1,1'-Biphenyl]-4-butanoic acid, 2'-formyl-γ-oxo-α-(3-phenylpropyl)-]"
720,–,–,1400,"O=C(CC(CCCc1ccccc1)C(=O)O)c1ccc(-c2ccc(O)cc2)cc1 (stereo not drawn) [Example 83, [1,1'-Biphenyl]-4-butanoic acid, 4'-hydroxy-γ-oxo-α-(3-phenylpropyl)-]"
150,–,–,100,"CCCOc1ccc(-c2ccc(C(=O)CC(CCCc3ccccc3)C(=O)O)cc2)cc1 (stereo not drawn) [Example 84, [1,1'-Biphenyl]-4-butanoic acid, γ-oxo-α-(3-phenylpropyl)-4'-propoxy-]"
168,30,–,–,"CCCCCCOc1ccc(-c2ccc(C(=O)CC(CCCc3ccccc3)C(=O)O)cc2)cc1 (stereo not drawn) [Example 88, [1,1'-Biphenyl]-4-butanoic acid, 4'-(hexyloxy)γ-oxo-α-(3-phenylpropyl)-]"
–,11,36,–,"O=C(CC(CCCc1ccccc1)C(=O)O)c1ccc(-c2ccc(OCCCc3ccccc3)cc2)cc1 (stereo not drawn) [Example 90, [1,1'-Biphenyl]-4-butanoic acid, γ-oxo-4'-(3-phenylpropoxy)-α-(3-phenylpropyl)-]"
174,–,–,700,"CC(C)Oc1ccc(-c2ccc(C(=O)CC(CCCc3ccccc3)C(=O)O)cc2)cc1 (stereo not drawn) [Example 91, [1,1'-Biphenyl]-4-butanoic acid, 4'-(1-methylethoxy)-γ-oxo-α-(3-phenylpropyl)-]"
–,26,60,–,"CCCCCCCOc1ccc(-c2ccc(C(=O)CC(CCCc3ccccc3)C(=O)O)cc2)cc1 (stereo not drawn) [Example 92, [1,1'-Biphenyl]-4-butanoic acid, 4'-(heptyloxy)-γ-oxo-α-(3-phenylpropyl)-]"
590,–,–,3800,"CCC(CC(=O)c1ccc(-c2ccc(Cl)cc2)cc1)C(=O)O (stereo not drawn) [Example 117, [1,1'-Biphenyl]-4-butanoic acid, 4'-chloro-α-ethyl-γ-oxo-]"
440,–,–,2200,"CCCC(CC(=O)c1ccc(-c2ccc(Cl)cc2)cc1)C(=O)O (stereo not drawn) [Example 118, [1,1'-Biphenyl]-4-butanoic acid, 4'-chloro-γ-oxo-α-propyl-]"
760,–,–,1800,"C=CCC(CC(=O)c1ccc(-c2ccc(Cl)cc2)cc1)C(=O)O (stereo not drawn) [Example 119, [1,1'-Biphenyl]-4-butanoic acid, 4'-chloro-γ-oxo-α-2-propenyl-]"
380,60,–,–,"CCCCC(CC(=O)c1ccc(-c2ccc(Cl)cc2)cc1)C(=O)O (stereo not drawn) [Example 120, [1,1'-Biphenyl]-4-butanoic acid, α-butyl-4'-chloro-γ-oxo-]"
1000,45,–,–,"C#CCC(CC(=O)c1ccc(-c2ccc(Cl)cc2)cc1)C(=O)O (stereo not drawn) [Example 121, [1,1'-Biphenyl]-4-butanoic acid, 4'-chloro-γ-oxo-α-2-propynyl-]"
180,28,–,–,"O=C(CC(CCc1ccccc1)C(=O)O)c1ccc(-c2ccc([N+](=O)[O-])cc2)cc1 (stereo not drawn) [Example 124, [1,1'-Biphenyl]-4-butanoic acid, 4'-nitro-γ-oxo-α-(2-phenylethyl)-]"
105,–,–,1800,"N#Cc1ccc(-c2ccc(C(=O)CC(CCc3ccccc3)C(=O)O)cc2)cc1 (stereo not drawn) [Example 125, [1,1'-Biphenyl]-4-butanoic acid, 4'-cyano-γ-oxo-α-(2-phenylethyl)-]"
112,–,–,2600,"O=C(CC(CCc1ccccc1)C(=O)O)c1ccc(-c2ccc(Cl)cc2)cc1 (stereo not drawn) [Example 132, [1,1'-Biphenyl]-4-butanoic acid, 4'-chloro-γ-oxo-α-(2-phenylethyl)-]"
